Columns and labels:
[1] = tested on: primary neurons; experiment: Neuronal cell death in the presence of H2O2; type: cell-based, mouse; conditions: 1 or 10 μM compound, 100 μM H2O2
Protocol: (§1) Primary neurons were treated with 0.4, 1, 2, 10 or 50 μM of compound 2 or compound 22 (prepared according to Example 2). NSP5 was added to primary neurons at DIV11, and compound 2 or 22 was added 48 hours later. Cells were treated with propidium iodide 48 hours after compound addition. Cells were washed with PBS and fixed with 4% PFA. Cells were then washed and stained with DAPI. Images of cells were taken with ZEISS Axioscan 7 microscope slide scanner. Cell death was determined by Image J analysis, counting the death cell (red, PI)) vs all cells (blue, DAPI).
(§2) One hour after compound addition (1 or 10 μM of compound 2 or compound 22) neurons were treated with a cytotoxic agent (100 μM N-methyl-D-aspartate (NMDA), 100 μM H2O2 or 5 μM staurosporine). One hour after treatment with the cytotoxic agent, the media was replaced with fresh media and the neurons were incubated for 24 hours. A final concentration of 1 μM propidium iodide (PI) was added into the well and incubated for 5 mins. Cells were washed with phosphate-buffered saline (PBS) and then fixed with 4% PFA. Cells were then washed and stained with DAPI, and cell death determined as described above.

[2] = tested on: primary neurons; experiment: Cytotoxicity / neuronal cell death in the presence of NSP5 (PI/DAPI)
[3] = tested on: primary neurons expressing SARS-CoV-2 NSP5 (AAV9-NSP5-V5); experiment: Effect on neurons in the presence of NSP5 (AAV9-NSP5-V5, immunofluorescence); type: cell-based, mouse; conditions: 0.4, 2, 10 or 50 μM, two days
[4] = tested on: primary neurons; experiment: Neuronal cell death in the presence of NMDA; type: cell-based, mouse; conditions: 1 or 10 μM compound, 100 μM NMDA
Protocol: as §1, §2

[5] = tested on: primary neurons; experiment: Neuronal cell death in the presence of staurosporine; type: cell-based, mouse; conditions: 1 or 10 μM compound, 5 μM staurosporine
Protocol: as §1, §2

[6] = tested on: primary neurons; experiment: Effect of compounds on neuronal cell death caused by NSP5 (Example 6); type: cell-based, mouse; conditions: 10 μM, 48 hours

| Compound | Protection from H2O2-induced neurotoxicity [1] | Reduction of neuronal cell death caused by NSP5 ([2]; 0.4, 1, 2, 10 or 50 μM, 48 hours) | Cell death caused by compound ([2]; therapeutic concentrations (nM to low μM)) | Prevention of NSP5-induced neuronal death [3] | Protection from NMDA-induced neurotoxicity [4] | Protection from staurosporine-induced neurotoxicity [5] | Reduction of neuronal cell death caused by NSP5 [6] |
| --- | --- | --- | --- | --- | --- | --- | --- |
| NC(=O)C1CCN(c2ncccc2CNC(=O)c2cccc3ccsc23)CC1 [Compound 2] | did not protect | selectively reduced neuronal cell death caused by NSP5 | did not cause any cell death | prevented NSP5-induced neuronal death in a dose-dependent manner | did not protect | did not protect |  |
| NC(=O)C1CCN(c2ncccc2CNC(=O)c2cc(F)cc(C(F)(F)F)c2)CC1 [Compound 35] |  |  |  |  |  |  | greatest activity |

Reference: patent US20260355171A1, “INHIBITORS AND USES THEREFOR” (priority 2022, published 2026)
